Data on five compounds can be found in article PMC8457330 (Journal of medicinal chemistry, 2021).

One test has as its system SARS-CoV. To be noted: read-out: SARS-CoV antiviral EC50; VeroE6 cells; cited from earlier work.
Another test deals with SARS-CoV 3CLpro (Severe acute respiratory syndrome coronavirus, UniProt P0C6X7). Description: biochemical.
A further test deals with SARS-CoV-2. Briefly: Antiviral activity, quantitative VeroE6 cell-based assay with RNA-qPCR. To be noted: VeroE6 cells, EC50 ratio versus compound 1. (In general: Real-time PCR tracks product formation cycle by cycle.)
In a further test the target is SARS-CoV-2 3CLpro (Severe acute respiratory syndrome coronavirus 2, UniProt P0DTD1). Type of test: biochemical.

By EC50 is commonly meant the concentration needed to bring the measured effect to its halfway point. For the compound `O=C(Oc1cncc(Cl)c1)c1cccc2[nH]ccc12` [Compound 1, 5-chloropyridin-3-yl 1H-indole-4-carboxylate], in the test on SARS-CoV, the EC50 is 6900 nM.

The term IC50 denotes the point on the concentration scale where inhibition reaches its midpoint. Read a high IC50 as lower potency. Take `O=C(Oc1cncc(Cl)c1)c1cccc2c1CCN2` [Compound 2, 5-chloropyridin-3-yl indoline-4-carboxylate]: the IC50 against SARS-CoV 3CLpro stood at 190 nM. Also, the “fold reduction in antiviral activity compared to 1” value with SARS-CoV-2 stood at 5 fold.

Turning to `O=C(Oc1cncc(Cl)c1)c1ccc2[nH]ccc2c1` [Compound 7a, 5-chloropyridin-3-yl 1H-indole-5-carboxylate], inhibition at SARS-CoV 3CLpro was half-maximal at 405 nM (IC50). This counts as sub-micromolar.

Consider `C=CCn1ccc2c(C(=O)Oc3cncc(Cl)c3)cccc21` [Compound 7d, 5-chloropyridin-3-yl 1-allyl-1H-indole-4-carboxylate], for which, at SARS-CoV-2 3CLpro (versus compound 1), the “fold improvement in inhibitory potency over 1” value was “over 5 fold”. In the test with SARS-CoV-2, the “fold reduction in antiviral activity compared to 1” value was ~5 fold.

As to `C=CCc1cn(CC=C)c2cccc(C(=O)Oc3cncc(Cl)c3)c12` [Compound 7e, 5-chloropyridin-3-yl 1,3-diallyl-1H-indole-4-carboxylate], on SARS-CoV-2 3CLpro (bis-allyl 7e versus 7d), the “fold reduction in enzyme inhibitory activity” value worked out at 5 fold.
